# Source: patent US11958812B2, “3, 5-disubstituted pyridine and 3, 5-disubstituted pyridazine derivatives and pharmaceutical use of same” (MITSUBISHI TANABE PHARMA CORPORATION, priority 2018, dated 2024)
# System: Macaca fascicularis laser-induced high intraocular pressure model
# Assay: Macaca fascicularis laser-induced high intraocular pressure model
# Type: in vivo
# Conditions: left eye with high intraocular pressure
# Description: [Study of Action of ATX Inhibitor on Macaca fascicularis Intraocular Pressure]
# The efficacy of ATX inhibitor (Example 5, hereinafter indicated as in example 5 in the Figures) for Macaca fascicularis laser-induced high intraocular pressure model was evaluated using the intraocular pressure lowering action as an index.
# A green laser beam at wavelength 532 nm was uniformly irradiated to 360° around of the trabecular meshwork, which is the excretory passage of the aqueous humor, of the left eye alone, whereby high intraocular pressure was induced. The right eye was maintained normal. […]
# The required amount of ATX inhibitor (Example 5) was weighed, transferred to an agate mortar and lightly ground. […] The oral vehicle was added to increase the amount and the pH was confirmed to be not exceeding 11.0 (measured value: pH10.55-10.88).
# A 0.04 mol/L boric acid/phosphoric acid/acetic acid mixed solution (307 mL) was mixed with a 0.2 mol/L aqueous sodium hydroxide solution (193 mL) (pH about 8.4), pH was adjusted to 8.5 with 1 mol/L hydrochloric acid to prepare Britton-Robinson buffer (pH 8.5). […] 4.5 mg of ATX inhibitor (Example 5) was measured in a 10 mL measuring flask, the instillation administration vehicle (9.6 mL) was added and the mixture was sonicated for 30 min in an ultrasonication washing machine set to about 40° C. […]
smiles,measurement,setting,value
"COc1ccc(-c2cnnc(OC[C@H]3CC[C@H](C(F)(F)F)CC3)c2)nc1[C@H]1C[C@@H]1C(=O)O [Example 5, (1S,2S)-2-[3-methoxy-6-(6-{[trans-4-(trifluoromethyl)cyclohexyl]methoxy}pyridazin-4-yl)pyridin-2-yl]cyclopropanecarboxylic Acid]","intraocular pressure lowering action, single instillation administration","instillation, 0.0135 mg/eye, FIG. 8",statistically significant intraocular pressure lowering action
same,"intraocular pressure lowering action, single oral administration","oral, 100 mg/kg, FIG. 7",statistically significant intraocular pressure lowering action
